Laboratory results published in ChEMBL document CHEMBL1201862, “PubChem BioAssay data set” (2004).
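Cells were grown in 96-well plates and exposed to each compound for 48 hours at five concentrations; endpoints were interpolated linearly between bracketing concentrations, or set to the highest concentration if not reached. The concentration for 50% growth inhibition is given as GI50.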 Activity calls are given as the source filed them. Rule as the data show it: active = GI50 up to about 1.1 µM and inactive = higher.

What was measured:
Assay in all cases: NCI anticancer screen, dose series, 48 h
[1] = tested on: SK-MEL-28
[2] = tested on: MOLT-4
[3] = tested on: UO-31
[4] = tested on: RXF 393
[5] = tested on: SF-539
[6] = tested on: K562
[7] = tested on: CCRF-CEM
[8] = tested on: SF-295
[9] = tested on: HL-60
[10] = tested on: SW-620
[11] = tested on: HOP-18
[12] = tested on: OVCAR-3
[13] = tested on: 786-0
[14] = tested on: UACC-257
[15] = tested on: HOP-92
[16] = tested on: SK-MEL-2
[17] = tested on: U-251
[18] = tested on: NCI-H226
[19] = tested on: NCI-H460

Measured: GI50

O=C(CC(O)(c1ccccc1)c1ccc(Cl)cc1)NC(=O)c1ccccc1O (stereo not drawn)
inactive: [1] 19.8 µM | [2] 10 µM | [3] 2.42 µM | [4] 11.7 µM | [5] 11.6 µM | [6] 4.6 µM | [7] 4.41 µM | [8] 4.4 µM | [9] 4.6 µM | [10] 18.7 µM | [11] 2.39 µM | [12] 4.36 µM | [13] 10.5 µM | [14] 10.3 µM | [15] 2.13 µM | [16] 5.3 µM | [17] 3.38 µM | [18] 7.87 µM | [19] 4.37 µM

CC12C3CC4C5CC(C(C53)[C@@H]1NCc1ccccc1)C42 (stereo partly drawn)
inactive: [1] > 100 µM | [2] > 100 µM | [3] 89.7 µM | [4] 84.9 µM | [5] > 100 µM | [6] 62.7 µM | [7] > 100 µM | [8] > 100 µM | [9] > 100 µM | [10] > 100 µM | [11] > 100 µM | [12] 54.3 µM | [13] > 100 µM | [14] > 100 µM | [15] 55.7 µM | [16] > 100 µM | [17] 97.5 µM | [18] > 100 µM | [19] > 100 µM

CCCCCCCCOCC(O)CO (stereo not drawn)
inactive: [1] > 100 µM | [2] 44.7 µM | [3] > 100 µM | [4] > 100 µM | [5] > 100 µM | [6] > 100 µM | [7] 4.52 µM | [8] > 100 µM | [9] > 100 µM | [10] > 100 µM | [11] > 100 µM | [12] > 100 µM | [13] > 100 µM | [14] > 100 µM | [15] 41.8 µM | [16] > 100 µM | [17] > 100 µM | [18] 84.9 µM | [19] > 100 µM

C=CCCCn1ccc2ccccc21
inactive: [1] > 100 µM | [2] > 100 µM | [3] > 100 µM | [4] > 100 µM | [5] > 100 µM | [6] > 100 µM | [7] > 100 µM | [8] > 100 µM | [9] > 100 µM | [10] > 100 µM | [11] > 100 µM | [12] > 100 µM | [13] > 100 µM | [14] > 100 µM | [15] 7.45 µM | [16] > 100 µM | [17] > 100 µM | [18] > 100 µM | [19] > 100 µM

Cc1ccc(NC(=O)/C(=N/NC(=O)CC#N)C2C(=O)N(c3ccccc3)N=C2N)cc1C (stereo not drawn)
inactive: [1] > 100 µM | [2] > 100 µM | [3] > 100 µM | [4] > 100 µM | [5] > 100 µM | [6] > 100 µM | [7] > 100 µM | [8] > 100 µM | [9] > 100 µM | [10] > 100 µM | [11] > 100 µM | [12] > 100 µM | [13] > 100 µM | [14] > 100 µM | [15] > 100 µM | [16] > 100 µM | [17] > 100 µM | [18] > 100 µM | [19] > 100 µM

CCCCCCCCCCCCCCCCCC(=O)OCC(C[As](=O)(O)O)OC(=O)CCCCCCCCCCCCCCCCC (stereo not drawn)
inactive: [1] > 100 µM | [2] > 100 µM | [3] > 100 µM | [4] 19.2 µM | [5] 32.6 µM | [6] 44.7 µM | [7] 39 µM | [8] 32.7 µM | [9] > 100 µM | [10] 16 µM | [11] > 100 µM | [12] 60.4 µM | [13] 27.2 µM | [14] > 100 µM | [15] 11.4 µM | [16] 70.1 µM | [17] 26 µM | [18] 24.4 µM | [19] > 100 µM

CN(C)CCC1(C2=CCCC2)CC/C(=C\c2ccc(Cl)cc2)C1=O (stereo not drawn)
inactive: [1] 2.49 µM | [2] 2.24 µM | [3] 5.33 µM | [4] 2.31 µM | [5] 12.7 µM | [6] 2.58 µM | [7] 2.38 µM | [8] 7.82 µM | [9] 1.6 µM | [10] 9.4 µM | [11] 11.9 µM | [12] 13.7 µM | [13] 4.04 µM | [14] 2.92 µM | [15] 3.89 µM | [16] 4.45 µM | [17] 8.87 µM | [18] 14.2 µM | [19] 10.9 µM
